Assay results from patent publication US20170065566A1, “PHARMACEUTICAL COMBINATIONS COMPRISING ANTIBACTERIAL AGENTS” (WOCKHARDT LIMITED, priority 2014, published 2017).
Counter-ions that a name gives are not always drawn.

Test system: E. coli 7MP strain producing CMY type, SHV, TEM beta-lactamase enzymes
Assay: Time kill study (viable bacterial count)
Format: cell-based
Settings: for Effect on bacterial count of E. coli throughout the duration of the study (in words): alone or in combination; for Bacterial count (Log10 CFU/ml) 0 hour / Bacterial count (Log10 CFU/ml) 2 hour / Bacterial count (Log10 CFU/ml) 4 hour / Bacterial count (Log10 CFU/ml) 6 hour / Bacterial count (Log10 CFU/ml) 8 hour: time kill
Description: The synergistic killing effect of the combinations according to invention was studied by performing time kill studies. In a typical time kill study, the freshly grown cultures were diluted to the required cell density (initial starting inoculum) in Cation adjusted Muller Hinton broth medium (BD, USA). The antibacterial agents (either alone or in combination) at the required concentrations were added into the culture-containing medium. The samples were incubated under shaking condition (120 rpm) at 37° C. Enumeration of viable bacterial count was done every 2 hour by diluting in normal saline and plating on to the Tryptic Soya Agar plates (BD, USA). The plates were incubated for 24 hours to arrive at the viable bacterial count. […] In general, the decrease of 1 Log CFU/ml, corresponds to 90% killing of bacteria. Similarly, 2 Log CFU/ml reductions indicates to 99% killing of bacteria and 3 Log CFU/ml reductions is equal to 99.9% killing of bacteria.
The assay without any antibacterial agent was taken as control.

[1] = each active ingredient at 4 mcg/ml

Row | SMILES | Effect on bacterial count of E. coli throughout the duration of the study (in words) [1] | Bacterial count (Log10 CFU/ml) 0 hour [1] | Bacterial count (Log10 CFU/ml) 2 hour [1] | Bacterial count (Log10 CFU/ml) 4 hour [1] | Bacterial count (Log10 CFU/ml) 6 hour [1] | Bacterial count (Log10 CFU/ml) 8 hour [1] | Bacterial count (Log10 CFU/ml) 0 hour (2 mcg/ml) | Bacterial count (Log10 CFU/ml) 2 hour (2 mcg/ml) | Bacterial count (Log10 CFU/ml) 4 hour (2 mcg/ml) | Bacterial count (Log10 CFU/ml) 6 hour (2 mcg/ml) | Bacterial count (Log10 CFU/ml) 8 hour (2 mcg/ml)
1 | CO/N=C(\C(=O)N[C@@H]1C(=O)N2C(C(=O)[O-])=C(C[N+]3(C)CCCC3)CS[C@H]12)c1csc(N)n1 [Cefepime, cefepime] | not effective in decreasing the bacterial count | 7.51 Log10 CFU/ml | 8.47 Log10 CFU/ml | 9.19 Log10 CFU/ml | 9.20 Log10 CFU/ml | 9.30 Log10 CFU/ml | – | – | – | – | –
2 | CO/N=C(\C(=O)N[C@@H]1C(=O)N2C(C(=O)[O-])=C(C[n+]3cccc4c3CCC4)CS[C@H]12)c1csc(N)n1 [Cefpirome, cefpirome] | not effective in decreasing the bacterial count | 7.51 Log10 CFU/ml | 8.87 Log10 CFU/ml | 9.27 Log10 CFU/ml | 9.20 Log10 CFU/ml | 9.25 Log10 CFU/ml | – | – | – | – | –
3 | C[C@@H](O)[C@H]1C(=O)N2C(C(=O)O)=C(SCCN=CN)C[C@H]12 [Imipenem, imipenem] | – | – | – | – | – | – | 7.51 Log10 CFU/ml | 3.95 Log10 CFU/ml | 3.60 Log10 CFU/ml | 4.81 Log10 CFU/ml | 5.90 Log10 CFU/ml
4 | N#C[C@@H]1CC[C@@H]2CN1C(=O)N2OS(=O)(=O)O [Sodium salt of a compound of Formula (I), sodium salt of sulphuric acid, mono[(1R,2S,5R)-2-cyano-7-oxo-1,6-diazabicyclo[3.2.1]oct-6-yl] ester] | not effective in decreasing the bacterial count | 7.51 Log10 CFU/ml | 8.87 Log10 CFU/ml | 9.36 Log10 CFU/ml | 9.20 Log10 CFU/ml | 9.20 Log10 CFU/ml | – | – | – | – | –
